Experimental findings from patent US9949970B2, “Synthesis of new benzothiazole derivatives as potential anti-tubercular agents” (priority 2010, dated 2018) are described below.

≈ marks a conversion by molar mass, not a printed value. Where two headings read alike, the source gives them in different places.

Data set [1] concerns M. tuberculosis H37Rv. The data set is described as follows: Antimycobacterial activity: MIC by broth microdilution / Nitrate Reductase Assay. Format: cell-based, Mycobacterium tuberculosis. Conditions: lowest concentration showing no colour change (NRA).
Data set [2] relates to AML-12 cell lines. The data set can be described thus: Cytotoxicity MTT assay on AML-12 cell lines. As to conditions: for Cytotoxicity: AML-12 cell line, MTT, 24 hrs, test material 2-100 μg/ml; for Cytotoxicity (result in words): AML-12 cell lines, MTT assay. The data set is classed as cell-based. As to the method: The potent compounds 3j, 4e, 6a, 6f, 6g, 6i, and 6p were evaluated for cytotoxic effect on AML-12 cell lines using MTT assay, in a 96 well plate format. Cells were incubated in Dulbecco's Modified Eagle's Medium (DMEM) containing 10% fetal calf serum (FCS) with the test material (2-100 μg/ml) for 24 hrs. at 37° C. in CO2 incubator. After the completion of incubation 3-(4,5-dimethylthiazol-2-yl)-2,5-diphenyltetrazolium bromide (MTT) was added and cells were further incubated for 3 h at 37° C. in CO2 incubator. Formation of formazan salt by mitochondrial dehydrogenases, and was determined by Elisa reader at 565 nm (Multiskan Spectrum; Thermo Electron Corporation, USA). The percentage cytotoxicity was calculated with respect to the untreated cells.

Data set [3] has as its system M. tuberculosis (H37Rv). The data set can be described thus: In vivo efficacy in lungs of infected mice. Also noted: species or system Swiss albino mice. Conditions: for In vivo activity (result in words) / Decrease of bacterial load in lung with late control (protections): mice; for In vivo activity (result in words): lung; for Decrease of bacterial load in lung with late control (protections): versus late control; for Log10 CFU/left Lung: infected female Swiss albino mice.

[4] abbreviates: Mycobacterium tuberculosis, H37RV, read-out: MIC.
Where [5] appears, read: Mycobacterium tuberculosis, H37RV.

`COc1ccc2nc(NN=Cc3ccc([N+](=O)[O-])s3)sc2c1` [Compound 3f, 5-nitro-2-thiophenecarbaldehyde 2-(6-methoxy-1,3-benzothiazole-2-yl)hydrazone]: in data set [1] (setting [4]), the minimum inhibitory concentration (MIC) was above 16 mg/L.

Consider `O=[N+]([O-])c1ccc(C=NNc2nc3ccc(Cl)cc3s2)o1` [Compound 3m, 5-nitro-2-furaldehyde 2-(6-chloro-1,3-benzothiazole-2-yl)hydrazone], for which the MIC in data set [1] (setting [4]) is 16 mg/L (≈ 49.6 µM).

The molecule `O=[N+]([O-])c1ccc2nc(NN=Cc3ccc([N+](=O)[O-])o3)sc2c1` [Compound 3o, 5-nitro-2-furaldehyde 2-(6-nitro-1,3-benzothiazole-2-yl)hydrazone] gave an MIC in data set [1] (setting [5]) of 16 mg/L (≈ 48 µM).

Regarding `O=[N+]([O-])c1ccc(C=NNc2nc3ccc(C(F)(F)F)cc3s2)o1` [Compound 3g, 5-nitro-2-furaldehyde 2-(6-trifluoromethyl-1,3-benzothiazole-2-yl)hydrazone], in data set [1] (setting [4]), the minimal inhibitory concentration (MIC) is above 16 mg/L.

For the molecule `O=C(Nc1ccc2nc(NC(=O)c3ccc(F)cc3F)sc2c1)c1ccc([N+](=O)[O-])o1` [Compound 6i, N2-{2-[(2,4-difluorobenzoyl)amino]-1,3-benzothiazol-6-yl}-5-nitrofuramide], the “MIC” value in data set [1] came out at 0.5 mg/L (≈ 1.13 µM). Besides, in data set [2], the Cytotoxicity is above 100 µg/mL and the “Cytotoxicity (result in words)” value is “no cytotoxicity”. Besides, in data set [3] (25 mg/kg), the “In vivo activity (result in words)” value was “bacteriostatic activities”, the “Decrease of bacterial load in lung with late control (protections)” value was 1.0 and the “Log10 CFU/left Lung” value is listed as 6.3 ± 0.37.

`Cc1ccc2nc(NNC(=O)c3ccc([N+](=O)[O-])o3)sc2c1` [Compound 4b, N′2-(6-methyl-1,3-benzothiazol-2yl)-5-nitro-2-furancarbohydrazide]: the MIC in data set [1] (setting [4]) was above 16 mg/L.

Regarding `NNC(=O)c1ccncc1` [INH, Isoniazid, reference compound], the MIC in data set [1] (setting [4]) was determined as 0.5 mg/L (≈ 3.65 µM).

On to `O=[N+]([O-])c1ccc(C=NNc2nc3ccc(C(F)(F)F)cc3s2)s1` [Compound 3h, 5-nitro-2-thiophenecarbaldehyde 2-(6-trifluoromethyl-1,3-benzothiazole-2-yl)hydrazone], for which the MIC in data set [1] (setting [4]) was above 16 mg/L.

Take `COc1ccc2nc(NN=Cc3ccc([N+](=O)[O-])o3)sc2c1` [Compound 3e, 5-nitro-2-furaldehyde 2-(6-methoxy-1,3-benzothiazole-2-yl)hydrazone]: the MIC in data set [1] (setting [4]) was above 16 mg/L.

In the case of “N2-(2-{[(E)-3-phenyl-2-propenoyl]amino}-1,3-benzothiazol-6-yl}-5-nitro-2-furamide [Compound 6q]”, the “MIC” value in data set [1] came to 8.0 mg/L. Further, in data set [2], the Cytotoxicity is above 100 µg/mL and the “Cytotoxicity (result in words)” value was “no cytotoxicity”.

`O=C(Nc1nc2ccc(NC(=O)c3ccc([N+](=O)[O-])o3)cc2s1)c1ccc(F)cc1` [Compound 6f, N2-{2-[(4-fluorobenzoyl)amino]-1,3-benzothiazol-6-yl}-5-nitrofuramide]: the “MIC” value in data set [1] came to 0.5 mg/L (≈ 1.17 µM). Besides, in data set [2], the Cytotoxicity was above 100 µg/mL and the “Cytotoxicity (result in words)” value is “no cytotoxicity”. In data set [3] (25 mg/kg), the “In vivo activity (result in words)” value was “bacteriostatic activities”, the “Decrease of bacterial load in lung with late control (protections)” value was determined as 1.0 and the “Log10 CFU/left Lung” value is 6.0 ± 0.13.

Take `O=[N+]([O-])c1ccc(C=NNc2nc3ccc(OC(F)(F)F)cc3s2)o1` [Compound 3i, 5-nitro-2-furaldehyde 2-(6-trifluoromethoxy-1,3-benzothiazole-2-yl)hydrazone]: in data set [1] (setting [4]), the minimal inhibitory concentration (MIC) is above 16 mg/L.

Take `O=C(Nc1nc2ccc(NC(=O)c3ccc([N+](=O)[O-])o3)cc2s1)c1ccccc1` [Compound 6a, N2-[2-(benzoylamino)-1,3-benzothiazol-6-yl]-5-nitrofuramide]: in data set [1] (setting [4]), the minimal inhibitory concentration (MIC) fell in the range of 0.5 to 8 mg/L (≈ 1.22 to 19.6 µM). Moreover, the “MIC” value in data set [1] is 1 mg/L (≈ 2.45 µM). In addition, in data set [2], the Cytotoxicity was above 100 µg/mL and the “Cytotoxicity (result in words)” value was “no cytotoxicity”.

Turning to `O=[N+]([O-])c1ccc(C=NNc2nc3ccc(Cl)cc3s2)s1` [Compound 3n, 5-nitro-2-thiophenecarbaldehyde 2-(6-chloro-1,3-benzothiazole-2-yl)hydrazone], the minimal inhibitory concentration (MIC) in data set [1] (setting [4]) is above 16 mg/L.

Consider `CO[C@H]1/C=C/O[C@@]2(C)Oc3c(C)c(O)c4c(O)c(c(/C=N/N5CCN(C)CC5)c(O)c4c3C2=O)NC(=O)/C(C)=C\C=C\[C@H](C)[C@H](O)[C@@H](C)[C@@H](O)[C@@H](C)[C@H](OC(C)=O)[C@@H]1C` [RMP, Rifampicin, reference compound], for which the minimum inhibitory concentration (MIC) in data set [1] (setting [4]) stood at 0.25 mg/L (≈ 0.304 µM). Besides, the “Log10 CFU/left Lung” value in data set [3] (20 mg/kg) worked out at 2.0 ± 0.41.

With `O=[N+]([O-])c1ccc(C=NNc2nc3ccccc3s2)s1` [Compound 3b, 5-nitro-2-thiophenecarbaldehyde 2-(1,3-benzothiazole-2-yl)hydrazone], the MIC in data set [1] (setting [4]) was above 16 mg/L.

As to `O=[N+]([O-])c1ccc(C=NNc2nc3ccc(F)cc3s2)s1` [Compound 3l, 5-nitro-2-thiophenecarbaldehyde 2-(6-fluoro-1,3-benzothiazole-2-yl)hydrazone], the MIC in data set [1] (setting [4]) was above 16 mg/L.

For the molecule `O=C(Nc1nc2ccc(NC(=O)c3ccc([N+](=O)[O-])o3)cc2s1)c1cnccn1` [Compound 6p, N2-(6-{[(5-nitro-2-furyl)carbonyl]amino}-1,3-benzothiazol-2-yl)-2-pyrazinecarboxamide], the “MIC” value in data set [1] stood at 1 mg/L (≈ 2.44 µM). In addition, in data set [2], the Cytotoxicity was above 100 µg/mL and the “Cytotoxicity (result in words)” value was “no cytotoxicity”.

Take “N3-(6-{[(5-nitro-2-furyl)carbonyl]amino}-1,3-benzothiazol-2-yl)nicotinamide [Compound 6o]”: in data set [1], the minimum inhibitory concentration (MIC) is 4.0 mg/L. In data set [2], the Cytotoxicity was above 100 µg/mL and the “Cytotoxicity (result in words)” value is listed as “no cytotoxicity”.

Regarding `O=C(NNc1nc2ccc(F)cc2s1)c1ccc([N+](=O)[O-])o1` [Compound 4f, N′2-(6-fluoro-1,3-benzothiazol-2-yl)-5-nitro-2-furanecarbohydrazide], in data set [1] (setting [4]), the minimal inhibitory concentration (MIC) is above 16 mg/L.

As for `COc1ccc2nc(NNC(=O)c3ccc([N+](=O)[O-])o3)sc2c1` [Compound 4c, N′2-(6-methoxy-1,3-benzothiazol-2-yl)-5-nitro-2-furancarbohydrazide], the minimum inhibitory concentration (MIC) in data set [1] (setting [4]) was above 16 mg/L.

In data set [1] (setting [5]), `O=[N+]([O-])c1ccc2nc(NN=Cc3ccc([N+](=O)[O-])s3)sc2c1` [Compound 3p, 5-nitro-2-thiophenecarbaldehyde 2-(6-nitro-1,3-benzothiazole-2-yl)hydrazone] had an MIC above 16 mg/L.

In the case of `O=C(NNc1nc2ccc(OC(F)(F)F)cc2s1)c1ccc([N+](=O)[O-])o1` [Compound 4e, N′2-(6-trifluoromethoxy-1,3-benzothiazol-2-yl)-5-nitro-2-furanecarbohydrazide], in data set [2], the Cytotoxicity was above 100 µg/mL and the “Cytotoxicity (result in words)” value is reported as “no cytotoxicity”.

For `O=[N+]([O-])c1ccc(C=NNc2nc3ccc(F)cc3s2)o1` [Compound 3k, 5-nitro-2-furaldehyde 2-(6-fluoro-1,3-benzothiazole-2-yl)hydrazone], the MIC in data set [1] (setting [4]) is above 16 mg/L.

Take `O=C(NNc1nc2ccc(Cl)cc2s1)c1ccc([N+](=O)[O-])o1` [Compound 4g, N′2-(6-chloro-1,3-benzothiazol-2-yl)-5-nitro-2-furanecarbohydrazide]: in data set [1] (setting [4]), the MIC is above 16 mg/L.

For the molecule `Cc1ccc2nc(NN=Cc3ccc([N+](=O)[O-])o3)sc2c1` [Compound 3c, 5-nitro-2-furaldehyde 2-(6-methyl-1,3-benzothiazole-2-yl)hydrazone], the minimum inhibitory concentration (MIC) in data set [1] (setting [4]) was above 16 mg/L.

`O=C(NNc1nc2ccc([N+](=O)[O-])cc2s1)c1ccc([N+](=O)[O-])o1` [Compound 4h, N′2-(6-nitro-1,3-benzothiazol-2-yl)-5-nitro-2-furanecarbohydrazide] had an MIC in data set [1] (setting [5]) of 16 mg/L (≈ 45.8 µM).

As to `O=[N+]([O-])c1ccc(C=NNc2nc3ccccc3s2)o1` [Compound 3a, 5-nitro-2-furaldehyde 2-(1,3-benzothiazole-2-yl)hydrazone], in data set [1] (setting [4]), the minimum inhibitory concentration (MIC) is above 16 mg/L.

As to “N2-(2-{[(E)-3-(4-chlorophenyl)-2-propenoyl]amino}-1,3-benzothiazol-6-yl)-5-nitro-2-furamide [Compound 6w]”, in data set [2], the Cytotoxicity was above 100 µg/mL and the “Cytotoxicity (result in words)” value was “no cytotoxicity”.

In the case of `O=[N+]([O-])c1ccc(C=NNc2nc3ccc(OC(F)(F)F)cc3s2)s1` [Compound 3j, 5-nitro-2-thiophenecarbaldehyde 2-(6-trifluoromethoxy-1,3-benzothiazole-2-yl)hydrazone], in data set [1] (setting [4]), the MIC is 0.5 to 8 mg/L (≈ 1.29 to 20.6 µM). Also, in data set [1], the “MIC” value is 1 mg/L (≈ 2.57 µM). For the same molecule, in data set [2], the Cytotoxicity was above 100 µg/mL and the “Cytotoxicity (result in words)” value was “no cytotoxicity”.

`O=C(NNc1nc2ccc(C(F)(F)F)cc2s1)c1ccc([N+](=O)[O-])o1` [Compound 4d, N′2-(6-trifluoromethyl-1,3-benzothiazol-2-yl)-5-nitro-2-furancarbohydrazide]: the MIC in data set [1] (setting [4]) is above 16 mg/L.

`O=C(NNc1nc2ccccc2s1)c1ccc([N+](=O)[O-])o1` [Compound 4a, N′2-(1,3-benzothiazol-2-yl)-5-nitro-2-furancarbohydrazide]: in data set [1] (setting [4]), the MIC is above 16 mg/L.

In the case of `Cc1ccc2nc(NN=Cc3ccc([N+](=O)[O-])s3)sc2c1` [Compound 3d, 5-nitro-2-thiophenecarbaldehyde 2-(6-methyl-1,3-benzothiazole-2-yl)hydrazone], the minimum inhibitory concentration (MIC) in data set [1] (setting [4]) was above 16 mg/L.
